The results in this text go back to ChEMBL document CHEMBL5512674, “Novel Acyl Thiourea-Based Hydrophobic Tagging Degraders Exert Potent Anti-Influenza Activity through Two Distinct Endonuclease Polymerase Acidic-Targeted Degradation Pathways” (J Med Chem, 2024).

The target of series [1] is T1, von Hippel-Lindau disease tumor suppressor/Polymerase basic protein 2 (Influenza A virus (strain A/Puerto Rico/8/1934 H1N1)) (UniProt P40337+P03428). Briefly: PROTAC activity at Influenza A virus A/WSN/33(H1N1) flag tagged Polymerase basic protein 2/VHL (unknown origin) expressed in HEK293T cells assessed as degradation of PB2 expression at 1 ug/ml incubated for 24 hrs by Western blotting analysis. The series is classed as cell-based. The following applies: dose 1.0 µg/ml.

The target in series [2] is T2, von Hippel-Lindau disease tumor suppressor/Polymerase basic protein 1 (Influenza A virus (strain A/Puerto Rico/8/1934 H1N1)) (UniProt P03431+P40337). Briefly: PROTAC activity at Influenza A virus A/WSN/33(H1N1) flag tagged Polymerase basic protein 1/VHL (unknown origin) expressed in HEK293T cells assessed as degradation of PB1 expression at 10 ug/ml incubated for 24 hrs by Western blotting analysis. The series is classed as cell-based. The following applies: dose 10.0 µg/ml. On the technique in general: Immunoblotting shows a protein as a band on a membrane.

Series [3] has as its target T1, von Hippel-Lindau disease tumor suppressor/Polymerase basic protein 2 (Influenza A virus (strain A/Puerto Rico/8/1934 H1N1)). Kind of series: PROTAC activity at Influenza A virus A/WSN/33(H1N1) flag tagged Polymerase basic protein 2/VHL (unknown origin) expressed in HEK293T cells assessed as degradation of PB2 expression at 10 ug/ml incubated for 24 hrs by Western blotting analysis. Type of series: cell-based. The conditions noted are these: dose 10.0 µg/ml.

Series [4] is described as follows: Cytotoxicity against human HEK293T cells assessed as reduction in cell viability incubated for 48 hrs by CCK-8 assay. The series is classed as toxicity, cell-based, HEK-293T.
Series [5] in a line: Selectivity index, ratio of CC50 for cytotoxicity against human HEK293T cells to EC50 for anti-influenza activity against Influenza A virus A/WSN/33(H1N1) infected in HEK293T cells assessed as reduction in virus-induced cytopathic effect. The following applies: read-out: Ratio CC50/EC50. The series is classed as toxicity, cell-based.
For another series, the system named is Influenza A virus. Briefly: Anti-influenza activity against Influenza A virus A/WSN/33(H1N1) infected in HEK293T cells assessed as reduction in virus-induced cytopathic effect incubated for 48 hrs by CCK-8 assay. The conditions noted are these: HEK-293T. The series is classed as functional, organism-based. Background: Cytopathic effects are the visible damage that an infection or toxin causes in cultured cells.

Series [6] addresses T2, von Hippel-Lindau disease tumor suppressor/Polymerase basic protein 1 (Influenza A virus (strain A/Puerto Rico/8/1934 H1N1)). Briefly: PROTAC activity at Influenza A virus A/WSN/33(H1N1) flag tagged Polymerase basic protein 1/VHL (unknown origin) expressed in HEK293T cells assessed as degradation of PB1 expression at 1 ug/ml incubated for 24 hrs by Western blotting analysis. Type of series: cell-based. The following applies: dose 1.0 µg/ml.

Calls of active or inactive are those of the source. The rule behind the calls is not given here.

By CC50 is commonly meant the concentration giving 50% cytotoxicity. What is called EC50 is the concentration that produces a half-maximal response.

T2 sequence (P03431 whole entry, looked up): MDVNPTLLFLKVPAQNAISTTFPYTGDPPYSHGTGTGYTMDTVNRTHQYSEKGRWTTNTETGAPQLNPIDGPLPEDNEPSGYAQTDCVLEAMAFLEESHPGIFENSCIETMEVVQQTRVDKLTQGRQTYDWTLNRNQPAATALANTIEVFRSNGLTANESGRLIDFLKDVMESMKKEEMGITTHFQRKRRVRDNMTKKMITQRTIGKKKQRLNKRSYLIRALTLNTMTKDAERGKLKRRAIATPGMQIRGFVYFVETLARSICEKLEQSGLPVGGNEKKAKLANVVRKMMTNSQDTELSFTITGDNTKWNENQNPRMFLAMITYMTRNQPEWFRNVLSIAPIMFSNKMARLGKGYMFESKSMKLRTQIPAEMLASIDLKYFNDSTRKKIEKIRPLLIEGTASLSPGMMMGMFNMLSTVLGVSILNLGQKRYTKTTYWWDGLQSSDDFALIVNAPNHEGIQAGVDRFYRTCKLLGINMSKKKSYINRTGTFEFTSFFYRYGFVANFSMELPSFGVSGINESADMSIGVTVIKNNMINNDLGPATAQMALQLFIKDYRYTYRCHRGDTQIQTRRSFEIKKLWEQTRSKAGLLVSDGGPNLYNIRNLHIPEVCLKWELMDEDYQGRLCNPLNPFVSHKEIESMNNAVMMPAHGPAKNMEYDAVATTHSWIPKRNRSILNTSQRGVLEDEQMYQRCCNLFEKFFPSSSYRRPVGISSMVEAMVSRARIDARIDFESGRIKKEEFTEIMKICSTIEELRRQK
T2 sequence (P40337 whole entry, looked up): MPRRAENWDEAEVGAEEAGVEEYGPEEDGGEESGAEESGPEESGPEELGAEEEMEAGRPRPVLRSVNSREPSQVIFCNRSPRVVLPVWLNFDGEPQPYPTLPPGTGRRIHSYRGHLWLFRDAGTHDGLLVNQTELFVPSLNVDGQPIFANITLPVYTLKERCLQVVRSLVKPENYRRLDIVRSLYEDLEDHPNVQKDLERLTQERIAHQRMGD
T1 sequence (P03428 whole entry, looked up): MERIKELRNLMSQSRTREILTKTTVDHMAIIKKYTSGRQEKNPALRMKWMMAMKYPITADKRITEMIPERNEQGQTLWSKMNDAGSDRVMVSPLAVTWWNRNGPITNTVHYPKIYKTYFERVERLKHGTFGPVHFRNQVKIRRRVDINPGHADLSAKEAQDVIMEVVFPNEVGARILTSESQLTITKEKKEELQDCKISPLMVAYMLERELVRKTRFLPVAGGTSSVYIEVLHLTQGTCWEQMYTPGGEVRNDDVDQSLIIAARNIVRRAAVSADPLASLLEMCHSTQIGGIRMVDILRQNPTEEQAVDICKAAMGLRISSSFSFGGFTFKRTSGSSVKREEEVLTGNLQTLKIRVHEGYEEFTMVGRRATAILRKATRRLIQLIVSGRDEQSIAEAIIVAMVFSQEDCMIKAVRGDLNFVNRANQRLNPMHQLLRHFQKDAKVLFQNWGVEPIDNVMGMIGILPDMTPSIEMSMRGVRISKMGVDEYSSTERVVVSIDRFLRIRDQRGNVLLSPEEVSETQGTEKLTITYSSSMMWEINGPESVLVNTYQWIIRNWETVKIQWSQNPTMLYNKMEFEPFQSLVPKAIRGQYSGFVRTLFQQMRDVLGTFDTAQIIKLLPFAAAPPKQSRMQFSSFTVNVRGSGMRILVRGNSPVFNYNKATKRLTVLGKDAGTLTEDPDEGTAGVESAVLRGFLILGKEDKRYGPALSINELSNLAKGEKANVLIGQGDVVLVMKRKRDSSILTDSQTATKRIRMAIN
T1 sequence (P40337 whole entry, looked up): as the sequence (P40337 whole entry, looked up) above

With `CC(C)(C)OC(=O)NCCCC[C@H](NC(=O)OC(C)(C)C)C(=O)NCCCCCCCCCCCC(=O)Nc1ccc(NC(=S)NC(=O)c2ccc(C(C)(C)C)cc2)cc1`, the result in series [1], in series [2], in series [3] and in series [6] was inactive. The CC50 at 48 h in series [4] was > 100000 nM. In series [5], the selectivity ratio was > 187. For the same compound, the EC50 in the series with Influenza A virus was 534 nM.

Consider `CC(C)(C)c1ccc(C(=O)NC(=S)Nc2ccc(NC(=O)CCCCCCCCN)cc2)cc1`, for which the 50% cytotoxic concentration (CC50) at 48 h in series [4] is 6470 nM. Also, in series [5], the selectivity ratio was found to be 17.7. Besides, the EC50 with Influenza A virus stood at 365 nM.

Turning to `CC(C)(C)c1ccc(C(=O)NC(=S)Nc2ccc(NC(=O)CCCCCCN)cc2)cc1`, the concentration giving a half-maximal response (EC50) in the series with Influenza A virus was > 44000 nM.

As to `CC(C)(C)OC(=O)N[C@@H](Cc1c[nH]c2ccccc12)C(=O)NCCCCCCC(=O)Nc1ccc(NC(=S)NC(=O)c2ccc(C(C)(C)C)cc2)cc1`, the outcome in series [1], in series [2], in series [3] and in series [6] was inactive. Also, the CC50 at 48 h in series [4] was > 100000 nM. Moreover, in series [5], the selectivity ratio is > 592. Also, the EC50 in the series with Influenza A virus was 169 nM.

As to `CC(C)(C)OC(=O)/N=C(\NCCC[C@H](NC(=O)OC(C)(C)C)C(=O)NCCCCCCCC(=O)Nc1ccc(NC(=S)NC(=O)c2ccc(C(C)(C)C)cc2)cc1)NC(=O)OC(C)(C)C`, the result in series [1], in series [2], in series [3] and in series [6] was inactive. Also, the CC50 at 48 h in series [4] is > 100000 nM. Moreover, in series [5], the selectivity ratio is > 267. Moreover, the EC50 in the series with Influenza A virus was 374 nM.

Regarding `CC(C)(C)c1ccc(C(=O)NC(=S)Nc2ccc(NC(=O)CCCCCCCN)cc2)cc1`, in the series on Influenza A virus, the EC50 is > 43000 nM.

On to `CC(C)(C)OC(=O)NCCCC[C@H](NC(=O)OC(C)(C)C)C(=O)NCCOCCOCC(=O)Nc1ccc(NC(=S)NC(=O)c2ccc(C(C)(C)C)cc2)cc1`, for which the EC50 in the series on Influenza A virus was > 25000 nM.

Take `CC(C)(C)OC(=O)N[C@@H](Cc1c[nH]c2ccccc12)C(=O)Nc1ccc(NC(=S)NC(=O)c2ccc(C(C)(C)C)cc2)cc1`: the result in series [1], in series [2], in series [3] and in series [6] was inactive. Further, the CC50 at 48 h in series [4] was > 100000 nM. Besides, in series [5], the selectivity ratio is > 246. The concentration for a half-maximal effect (EC50) in the series on Influenza A virus was found to be 407 nM.

As for `CC(C)(C)c1ccc(C(=O)NC(=S)Nc2ccc(NC(=O)CCCCCCCCCN)cc2)cc1`, the CC50 at 48 h in series [4] was < 6290 nM. Besides, the selectivity ratio in series [5] is 21.1. The EC50 with Influenza A virus was determined as 298 nM.

As to `CC(C)(C)OC(=O)N[C@@H](Cc1c[nH]c2ccccc12)C(=O)NCCCCCCCCCCCC(=O)Nc1ccc(NC(=S)NC(=O)c2ccc(C(C)(C)C)cc2)cc1`, the outcome in series [1], in series [2], in series [3] and in series [6] was inactive. The CC50 at 48 h in series [4] was > 100000 nM. Also, the selectivity ratio in series [5] is > 103. Besides, the EC50 in the series on Influenza A virus came out at 974 nM.

`CC(C)(C)OC(=O)N[C@@H](Cc1c[nH]c2ccccc12)C(=O)NCCCCCCCCCCC(=O)Nc1ccc(NC(=S)NC(=O)c2ccc(C(C)(C)C)cc2)cc1`: the result in series [1], in series [2], in series [3] and in series [6] was inactive. The CC50 at 48 h in series [4] amounted to 41800 nM. For the same compound, the selectivity ratio in series [5] worked out at 109. For the same compound, in the series on Influenza A virus, the EC50 was determined as 383 nM.

`CC(C)(C)OC(=O)N[C@@H](Cc1c[nH]c2ccccc12)C(=O)NCCCC(=O)Nc1ccc(NC(=S)NC(=O)c2ccc(C(C)(C)C)cc2)cc1`: the outcome in series [1], in series [2], in series [3] and in series [6] was inactive. The CC50 at 48 h in series [4] was 95400 nM. In addition, the selectivity ratio in series [5] was found to be 167. In addition, in the series on Influenza A virus, the EC50 was found to be 572 nM.
